This is an account of results in US20050064510A1, “Ligand analysis” (priority 2003, published 2005).

Assay [1] deals with T1, Serine Kinase Zap-70 (Homo sapiens, UniProt P43403).
T1 sequence (P43403 1-619): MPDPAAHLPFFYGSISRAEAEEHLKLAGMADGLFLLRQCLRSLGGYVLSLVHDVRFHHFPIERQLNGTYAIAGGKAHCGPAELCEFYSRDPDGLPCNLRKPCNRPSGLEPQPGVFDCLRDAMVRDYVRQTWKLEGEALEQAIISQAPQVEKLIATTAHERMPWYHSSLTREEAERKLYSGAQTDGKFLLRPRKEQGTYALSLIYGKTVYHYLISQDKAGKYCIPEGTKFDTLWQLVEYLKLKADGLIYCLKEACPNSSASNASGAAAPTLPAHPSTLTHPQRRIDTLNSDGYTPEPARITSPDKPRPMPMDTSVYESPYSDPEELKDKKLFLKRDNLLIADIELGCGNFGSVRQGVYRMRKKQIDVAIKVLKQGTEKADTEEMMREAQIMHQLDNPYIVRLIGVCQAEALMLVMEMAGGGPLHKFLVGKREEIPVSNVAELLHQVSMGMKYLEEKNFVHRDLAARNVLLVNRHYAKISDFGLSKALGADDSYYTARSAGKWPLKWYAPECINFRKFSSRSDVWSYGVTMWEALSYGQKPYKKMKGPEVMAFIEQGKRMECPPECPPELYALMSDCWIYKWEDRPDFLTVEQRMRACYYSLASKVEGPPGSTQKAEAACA
The experiment in a line: AS-MS dissociation kinetics after quench with excess Staurosporine. It counts as binding. To be noted: read-out: Dissociation rate ks2 (converted). As for the experimental part: A mixture of 9 μM Zap-70 and 1 μM NGD-6380 is prepared and incubated at room temperature for 30 minutes, a time sufficient for the mixture to reach equilibrium of bound and unbound components. […] The resulting dissociation of NGD-6380 is measured over time at intervals of 20, 30, 40, 60, 70, 80, and 100 minutes. The dissociation of NGD-6380 is measured in the following manner. […] Any amount of NGD-6380 which is not bound to the Zap-70 is separated from the Zap-70-NGD-6380 complex by the size exclusion step. […] Thus, the dissociation of […] is seen by the decreasing amount of the signal response of the NGD-6380 over time. The decrease in the signal response of the NGD-6380 is plotted as a function of time and the experimental data is fit to the exponential decay function of formula (XVIII) using the program Mathematical (Wolfram Research Inc., version 4.1). [ES]=[ES]0e^-ks2·t formula (XVIII) A mixture of 9 μM Zap-70 and 1 μM of a mixture of the ligands depicted in Table 3 is prepared and incubated at room temperature for 30 minutes, a time sufficient for the mixture to reach equilibrium of bound and unbound components. […] The decrease in the signal response of the ligands is plotted as a function of time and the experimental data is fit to the exponential decay function of formula (XVIII) using the program Mathematica®. [ESi]=[[…] formula (XVIII)

Assay [2] deals with T2, muscarinic acetylcholine receptor M2 (Cavia porcellus, UniProt H0VRN8).
T2 sequence (H0VRN8 1-466): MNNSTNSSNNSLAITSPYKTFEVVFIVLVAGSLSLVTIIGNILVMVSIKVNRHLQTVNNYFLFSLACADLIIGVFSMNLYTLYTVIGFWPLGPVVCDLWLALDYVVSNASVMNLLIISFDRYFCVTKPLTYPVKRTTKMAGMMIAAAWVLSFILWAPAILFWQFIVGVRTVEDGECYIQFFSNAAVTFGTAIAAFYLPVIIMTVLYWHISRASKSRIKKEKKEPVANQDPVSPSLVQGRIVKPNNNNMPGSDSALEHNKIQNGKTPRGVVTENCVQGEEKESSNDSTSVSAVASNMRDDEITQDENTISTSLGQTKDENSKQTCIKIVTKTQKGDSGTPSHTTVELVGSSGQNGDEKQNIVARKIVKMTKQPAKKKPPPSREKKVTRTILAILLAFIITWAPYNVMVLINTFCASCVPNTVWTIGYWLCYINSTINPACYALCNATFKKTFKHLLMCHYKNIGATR
Put plainly: Tissue-based assay for M2 antagonism.

Consider `CC(CNc1cc(C(=O)N2CCC[C@H]2CN2CCCC2)c2cc(-c3ccc4c(c3)OCO4)ccc2n1)c1ccccc1` (stereo partly drawn) [NGD-6390], for which the koff in assay [1] was 0.00021 s⁻¹. As for `O=C(c1cc(NCc2ccc(C(F)(F)F)cc2)nc2ccc(-c3ccc4c(c3)OCO4)cc12)N1CCC[C@H]1CN1CCCC1` [NGD-6380], the koff in assay [1] was 0.000138 s⁻¹. For `O=C(N[C@H]1CCCC[C@@H]1OCc1ccccc1)c1coc(-c2ccc(C(=O)N3CCC(N4CCCC4)CC3)cc2)n1` [NGD-3350], the “activity in tissue” value in assay [2] was “significant activity”.

In the case of `CCN(Cc1ccccc1)c1cc(C(=O)N2CCC[C@H]2CN2CCCC2)c2cc(-c3ccc4c(c3)OCO4)ccc2n1` [NGD-6423], the koff in assay [1] was 6.5e-05 s⁻¹.

With `O=C(c1cc(NCc2ccc(C(F)(F)F)cc2)nc2ccc(-c3ccc4c(c3)OCCO4)cc12)N1CCC[C@H]1CN1CCCC1` [NGD-6862], the koff in assay [1] is 0.000107 s⁻¹. As for `O=C(c1cc(NCc2ccc(Cl)cc2)nc2ccc(-c3ccc4c(c3)OCO4)cc12)N1CCC[C@H]1CN1CCCC1` [NGD-6371], the koff in assay [1] is 0.000275 s⁻¹. For `CN(Cc1ccc(Cl)c(Cl)c1)c1cc(C(=O)N2CCC[C@H]2CN2CCCC2)c2cc(-c3ccc4c(c3)OCO4)ccc2n1` [NGD-6432], in assay [1], the koff is 0.000117 s⁻¹. On to `O=C(c1cc(NCc2cccc(F)c2)nc2ccc(-c3ccc4c(c3)OCO4)cc12)N1CCC[C@H]1CN1CCCC1` [NGD-6367], for which the koff in assay [1] is 0.000493 s⁻¹. With `CN(Cc1ccccc1)c1cc(C(=O)N2CCC[C@H]2CN2CCCC2)c2cc(-c3ccc4c(c3)OCO4)ccc2n1` [NGD-6073], the koff in assay [1] is 0.000117 s⁻¹.
